Assay results from patent publication US20170313669A1, “LACTONE COMPOUNDS AND METHODS OF MAKING AND USING SAME” (THE SCRIPPS RESEARCH INSTITUTE, priority 2015, published 2017).
Values belong to the compound of their own block, whether it stands above or below them.

Key:
[1] = test system: serine hydrolase targets from mouse brain and COLO205 membrane proteomes; assay: Competitive gel-based ABPP of β-lactone probe set; format: biochemical; details: 25 μM, 30 min, 37° C., then FP-rhodamine
Protocol: Competitive gel-based ABPP were performed as described previously with slight modifications. See Adibekian et al. Nat. Chem. Biol. (2011) 7, 469. […] The reactions were quenched by adding 40 μL of 4×SDS-PAGE loading buffer for reducing gels, followed by boiling for 2 minutes. All samples were visualized in-gel using an FMBio II Multiview flatbed fluorescence scanner (Hitachi). The fluorescence from rhodamine is presented in gray scale.

[2] = target: T1, PNPLA4 (Homo sapiens, UniProt P41247); assay: ABPP-SILAC of COLO205 membrane proteome treated with compound 8b; format: biochemical; details: 30 min
T1 construct: All ABPP-SILAC experiments were performed using the human COLO205 colon cancer cell line; endogenous in cells; host or cells: COLO205
T1 sequence (P41247 whole entry): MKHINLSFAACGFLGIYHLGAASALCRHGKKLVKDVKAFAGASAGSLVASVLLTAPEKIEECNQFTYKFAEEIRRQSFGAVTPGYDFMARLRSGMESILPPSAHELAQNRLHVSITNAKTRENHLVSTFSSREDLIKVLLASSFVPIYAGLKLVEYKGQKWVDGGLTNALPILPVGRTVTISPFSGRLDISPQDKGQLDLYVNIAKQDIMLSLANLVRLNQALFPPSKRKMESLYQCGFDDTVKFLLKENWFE

[3] = target: T2, FAAH (Homo sapiens, UniProt O00519); assay: as above; format: biochemical; details: 30 min
T2 construct: All ABPP-SILAC experiments were performed using the human COLO205 colon cancer cell line; endogenous in cells; host or cells: COLO205
T2 sequence (O00519 whole entry): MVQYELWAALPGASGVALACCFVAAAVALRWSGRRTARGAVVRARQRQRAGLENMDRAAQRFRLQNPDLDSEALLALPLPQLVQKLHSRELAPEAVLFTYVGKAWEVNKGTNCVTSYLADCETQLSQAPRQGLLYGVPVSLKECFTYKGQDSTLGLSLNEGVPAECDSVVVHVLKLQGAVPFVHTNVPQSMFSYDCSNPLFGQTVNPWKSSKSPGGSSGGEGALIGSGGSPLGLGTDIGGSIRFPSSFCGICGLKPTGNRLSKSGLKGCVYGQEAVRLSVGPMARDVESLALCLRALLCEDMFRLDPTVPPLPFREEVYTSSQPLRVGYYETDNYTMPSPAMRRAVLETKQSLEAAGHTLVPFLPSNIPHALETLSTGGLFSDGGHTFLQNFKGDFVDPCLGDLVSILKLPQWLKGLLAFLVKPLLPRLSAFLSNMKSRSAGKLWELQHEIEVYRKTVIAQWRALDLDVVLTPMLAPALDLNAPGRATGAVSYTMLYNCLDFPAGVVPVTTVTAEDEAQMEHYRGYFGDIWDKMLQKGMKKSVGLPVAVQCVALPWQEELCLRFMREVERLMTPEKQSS

[4] = target: T3, ABHD2 (Homo sapiens, UniProt P08910); assay: as above; format: biochemical; details: 30 min
T3 construct: All ABPP-SILAC experiments were performed using the human COLO205 colon cancer cell line; endogenous in cells; host or cells: COLO205

[5] = target: T4, CES2 (Homo sapiens, UniProt O00748); assay: as above; format: biochemical; details: 30 min
T4 construct: All ABPP-SILAC experiments were performed using the human COLO205 colon cancer cell line; endogenous in cells; host or cells: COLO205
T4 sequence (O00748 27-559): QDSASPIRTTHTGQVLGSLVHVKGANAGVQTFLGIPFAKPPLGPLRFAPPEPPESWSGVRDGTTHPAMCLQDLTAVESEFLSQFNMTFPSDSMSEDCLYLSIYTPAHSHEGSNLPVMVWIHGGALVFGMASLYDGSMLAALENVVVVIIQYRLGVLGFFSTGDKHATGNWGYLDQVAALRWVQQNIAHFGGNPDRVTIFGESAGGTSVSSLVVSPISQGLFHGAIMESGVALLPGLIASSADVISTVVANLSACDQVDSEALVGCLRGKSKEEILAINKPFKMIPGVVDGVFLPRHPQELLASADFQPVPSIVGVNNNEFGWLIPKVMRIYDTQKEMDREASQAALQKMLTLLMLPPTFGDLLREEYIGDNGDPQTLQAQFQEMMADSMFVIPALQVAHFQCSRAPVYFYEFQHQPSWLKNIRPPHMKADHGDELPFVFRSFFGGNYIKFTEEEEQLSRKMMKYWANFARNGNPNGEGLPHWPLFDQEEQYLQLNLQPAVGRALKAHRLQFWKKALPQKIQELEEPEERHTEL

[6] = target: T5, ABHD12 (Homo sapiens, UniProt Q8N2K0); assay: as above; format: biochemical; details: 30 min
T5 construct: All ABPP-SILAC experiments were performed using the human COLO205 colon cancer cell line; endogenous in cells; host or cells: COLO205
T5 sequence (Q8N2K0 whole entry): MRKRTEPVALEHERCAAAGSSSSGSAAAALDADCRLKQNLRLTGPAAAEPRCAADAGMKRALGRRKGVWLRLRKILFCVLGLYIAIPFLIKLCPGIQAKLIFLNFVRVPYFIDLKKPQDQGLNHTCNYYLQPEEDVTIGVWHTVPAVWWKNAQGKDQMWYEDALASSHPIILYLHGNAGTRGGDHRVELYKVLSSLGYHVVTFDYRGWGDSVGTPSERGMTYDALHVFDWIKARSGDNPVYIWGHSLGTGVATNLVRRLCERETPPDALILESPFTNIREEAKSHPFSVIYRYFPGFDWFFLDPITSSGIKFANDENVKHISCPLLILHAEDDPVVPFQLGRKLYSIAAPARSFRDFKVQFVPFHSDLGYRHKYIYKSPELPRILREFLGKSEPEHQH

[7] = target: T6, FASN (Homo sapiens, UniProt P49327); assay: as above; format: biochemical; details: 30 min
T6 construct: All ABPP-SILAC experiments were performed using the human COLO205 colon cancer cell line; endogenous in cells; host or cells: COLO205
T6 sequence (P49327 whole entry): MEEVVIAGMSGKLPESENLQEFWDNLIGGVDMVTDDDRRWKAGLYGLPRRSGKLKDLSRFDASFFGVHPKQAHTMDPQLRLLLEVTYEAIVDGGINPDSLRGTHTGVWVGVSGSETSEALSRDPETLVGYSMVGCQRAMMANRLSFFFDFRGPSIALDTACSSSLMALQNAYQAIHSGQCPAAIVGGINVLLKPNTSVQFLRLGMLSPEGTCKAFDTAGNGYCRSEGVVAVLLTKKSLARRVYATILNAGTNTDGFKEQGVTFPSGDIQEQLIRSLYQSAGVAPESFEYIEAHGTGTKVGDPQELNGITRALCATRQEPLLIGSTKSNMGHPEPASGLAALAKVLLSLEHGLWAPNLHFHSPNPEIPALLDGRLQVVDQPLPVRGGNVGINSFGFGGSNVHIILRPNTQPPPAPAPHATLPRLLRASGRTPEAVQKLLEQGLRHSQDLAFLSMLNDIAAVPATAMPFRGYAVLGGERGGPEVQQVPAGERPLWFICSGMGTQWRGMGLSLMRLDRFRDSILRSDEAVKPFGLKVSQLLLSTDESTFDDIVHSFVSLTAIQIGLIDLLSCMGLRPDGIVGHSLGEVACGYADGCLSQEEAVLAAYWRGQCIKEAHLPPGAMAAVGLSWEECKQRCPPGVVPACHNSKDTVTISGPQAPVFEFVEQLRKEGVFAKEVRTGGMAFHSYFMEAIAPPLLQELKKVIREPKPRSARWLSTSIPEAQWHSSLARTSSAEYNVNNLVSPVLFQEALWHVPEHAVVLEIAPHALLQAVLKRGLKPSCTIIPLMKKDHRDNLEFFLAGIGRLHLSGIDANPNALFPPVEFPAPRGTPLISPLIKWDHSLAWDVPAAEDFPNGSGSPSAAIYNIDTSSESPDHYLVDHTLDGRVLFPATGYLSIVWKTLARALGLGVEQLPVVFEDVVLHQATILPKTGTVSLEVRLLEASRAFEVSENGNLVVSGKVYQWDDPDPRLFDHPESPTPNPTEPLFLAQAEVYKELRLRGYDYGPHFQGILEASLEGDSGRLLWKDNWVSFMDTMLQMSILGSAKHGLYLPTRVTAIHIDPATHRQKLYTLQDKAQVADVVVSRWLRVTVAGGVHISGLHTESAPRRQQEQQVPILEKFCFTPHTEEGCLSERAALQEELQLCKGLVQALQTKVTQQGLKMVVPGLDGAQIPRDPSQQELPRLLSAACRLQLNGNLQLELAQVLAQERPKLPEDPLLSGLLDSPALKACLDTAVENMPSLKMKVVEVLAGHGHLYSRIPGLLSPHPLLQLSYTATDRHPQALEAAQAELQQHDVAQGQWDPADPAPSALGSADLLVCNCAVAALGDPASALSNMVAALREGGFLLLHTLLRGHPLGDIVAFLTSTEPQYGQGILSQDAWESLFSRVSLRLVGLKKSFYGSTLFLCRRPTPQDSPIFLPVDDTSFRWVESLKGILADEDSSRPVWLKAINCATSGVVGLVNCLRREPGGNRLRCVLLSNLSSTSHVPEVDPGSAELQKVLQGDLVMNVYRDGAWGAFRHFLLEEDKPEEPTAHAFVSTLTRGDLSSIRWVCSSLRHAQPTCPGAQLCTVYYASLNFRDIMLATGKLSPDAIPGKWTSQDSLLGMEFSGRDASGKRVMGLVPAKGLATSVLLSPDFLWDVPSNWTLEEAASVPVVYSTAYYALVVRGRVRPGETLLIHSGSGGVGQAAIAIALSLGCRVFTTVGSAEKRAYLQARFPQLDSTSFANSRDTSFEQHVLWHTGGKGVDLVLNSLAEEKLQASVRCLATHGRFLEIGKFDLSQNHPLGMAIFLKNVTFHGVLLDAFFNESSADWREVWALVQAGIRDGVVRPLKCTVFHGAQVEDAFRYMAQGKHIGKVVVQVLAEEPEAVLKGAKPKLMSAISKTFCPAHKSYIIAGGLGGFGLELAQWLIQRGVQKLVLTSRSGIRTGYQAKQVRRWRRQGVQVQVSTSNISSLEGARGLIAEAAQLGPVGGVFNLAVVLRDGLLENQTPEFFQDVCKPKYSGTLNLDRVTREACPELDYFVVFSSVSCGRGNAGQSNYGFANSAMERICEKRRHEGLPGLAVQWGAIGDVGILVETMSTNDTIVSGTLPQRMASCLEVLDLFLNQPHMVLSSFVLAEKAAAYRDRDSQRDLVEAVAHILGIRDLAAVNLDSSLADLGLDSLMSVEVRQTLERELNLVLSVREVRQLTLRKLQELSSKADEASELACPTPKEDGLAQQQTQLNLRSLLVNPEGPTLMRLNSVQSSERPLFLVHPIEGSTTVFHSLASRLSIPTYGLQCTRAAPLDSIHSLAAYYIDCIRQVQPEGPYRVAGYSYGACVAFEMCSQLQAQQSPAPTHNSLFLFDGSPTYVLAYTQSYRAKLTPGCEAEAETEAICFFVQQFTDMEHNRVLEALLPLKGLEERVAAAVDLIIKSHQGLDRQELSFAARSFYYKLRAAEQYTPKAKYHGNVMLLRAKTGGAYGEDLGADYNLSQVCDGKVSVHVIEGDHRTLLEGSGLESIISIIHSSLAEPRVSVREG

[8] = target: T7, ABHD3 (Homo sapiens, UniProt Q8WU67); assay: as above; format: biochemical; details: 30 min
T7 construct: All ABPP-SILAC experiments were performed using the human COLO205 colon cancer cell line; endogenous in cells; host or cells: COLO205
T7 sequence (Q8WU67 whole entry): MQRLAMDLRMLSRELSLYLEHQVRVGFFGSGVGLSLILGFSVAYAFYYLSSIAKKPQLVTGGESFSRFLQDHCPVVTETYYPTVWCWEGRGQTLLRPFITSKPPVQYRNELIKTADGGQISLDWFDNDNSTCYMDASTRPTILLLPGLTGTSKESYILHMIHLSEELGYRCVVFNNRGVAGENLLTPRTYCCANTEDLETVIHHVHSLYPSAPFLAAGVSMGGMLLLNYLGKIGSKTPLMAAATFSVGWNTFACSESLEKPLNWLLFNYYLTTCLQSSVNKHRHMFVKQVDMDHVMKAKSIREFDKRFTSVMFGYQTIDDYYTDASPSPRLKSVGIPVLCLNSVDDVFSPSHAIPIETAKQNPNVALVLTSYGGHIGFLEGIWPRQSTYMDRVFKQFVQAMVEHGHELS

[9] = target: T8, ABHD16A (Homo sapiens, UniProt O95870); assay: as above; format: biochemical; parameters: All ABPP-SILAC experiments were performed using the human COLO205 colon cancer cell line; endogenous in cells; host or cells: COLO205; details: 30 min
T8 sequence (O95870 1-558): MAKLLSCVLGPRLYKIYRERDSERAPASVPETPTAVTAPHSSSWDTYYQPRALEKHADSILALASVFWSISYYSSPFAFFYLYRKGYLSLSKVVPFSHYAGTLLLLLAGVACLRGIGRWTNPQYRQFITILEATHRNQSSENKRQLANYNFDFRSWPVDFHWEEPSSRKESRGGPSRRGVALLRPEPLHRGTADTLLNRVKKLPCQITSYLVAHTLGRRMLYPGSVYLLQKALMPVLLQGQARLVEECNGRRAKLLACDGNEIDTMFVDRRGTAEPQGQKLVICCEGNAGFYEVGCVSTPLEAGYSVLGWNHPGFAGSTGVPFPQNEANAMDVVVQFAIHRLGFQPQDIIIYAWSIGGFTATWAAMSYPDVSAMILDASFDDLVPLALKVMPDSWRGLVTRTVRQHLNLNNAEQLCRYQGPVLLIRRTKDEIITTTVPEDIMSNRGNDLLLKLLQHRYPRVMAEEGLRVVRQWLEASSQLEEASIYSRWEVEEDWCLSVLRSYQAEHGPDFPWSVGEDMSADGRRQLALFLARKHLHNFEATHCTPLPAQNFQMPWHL

[10] = test system: ABHD16A−/− macrophages; assay: Lyso-PS and cytokines of ABHD16A−/− macrophages; format: cell-based, mouse; details: basal or LPS stimulation; 1 μM, 4 h
Protocol: Concentration of secreted lyso-PS (a) and cytokines IL-6 (b) and TNF-α (c) from thioglycollate-elicited peritoneal mouse macrophages from ABHD16A^−/− mice treated with inhibitor (KC01 or KC02, 1 μM, 4 h) followed by vehicle (PBS) or LPS (5 μg/mL) for 7 h is shown. Data represent mean±s.e.m. for four biological replicates. KC01 and KC02 have no effect on lyso-PS or cytokine secretion. Other secreted and cellular lipids in ABHD16A^−/− macrophages were also unchanged by KC01 or KC02 treatment (data not shown).
Peritoneal macrophages were elicited and harvested from mice according to the standard protocols available from LIPID MAPS (See http://www.lipidmaps.org/protocols/PP0000001400.pdf and http://www.lipidmaps.org/protocols/PP0000001500.pdf). After removal of the RBC lysis buffer, the macrophages were re-suspended in RPMI 1640 with 10% FCS and IX penicillin-streptomycin. Cell counts measured using a Bio-Rad TC10 automated cell counter, and equal numbers of cells (2×10^6) were plated in 10 cm tissue culture dishes. Macrophages were allowed to adhere to the plates for 2 h at 37° C. and 5% CO2. […] Macrophages were then stimulated with lipopolysaccharide (5 μg/mL) for 7 hours. Sterile PBS was the vehicle in these studies. Four milliliters of the media was used for measuring secreted metabolites, and 0.5 mL was used for cytokine measurements.

[11] = target: T8, ABHD16A; assay: ABPP-SILAC, COLO205 cells treated in situ; format: cell-based; parameters: All ABPP-SILAC experiments were performed using the human COLO205 colon cancer cell line; endogenous in cells; host or cells: COLO205; details: COLO 205, 4 h
[12] = target: T9, mouse ABHD16A (Mus musculus, UniProt Q9Z1Q2); assay: PS substrate assay, mouse ABHD16A-transfected HEK293T proteome; format: biochemical; details: 20 μM, 30 min, 37° C.
T9 construct: full-length cDNA of human ABHD16A (Open Biosystems Catalog # MHS6278-202758315) or murine ABHD16A (Open Biosystems Catalog # MMM1013-202760516); host or cells: HEK293T, transient, pCMV-SPORT6
T9 sequence (Q9Z1Q2 1-558): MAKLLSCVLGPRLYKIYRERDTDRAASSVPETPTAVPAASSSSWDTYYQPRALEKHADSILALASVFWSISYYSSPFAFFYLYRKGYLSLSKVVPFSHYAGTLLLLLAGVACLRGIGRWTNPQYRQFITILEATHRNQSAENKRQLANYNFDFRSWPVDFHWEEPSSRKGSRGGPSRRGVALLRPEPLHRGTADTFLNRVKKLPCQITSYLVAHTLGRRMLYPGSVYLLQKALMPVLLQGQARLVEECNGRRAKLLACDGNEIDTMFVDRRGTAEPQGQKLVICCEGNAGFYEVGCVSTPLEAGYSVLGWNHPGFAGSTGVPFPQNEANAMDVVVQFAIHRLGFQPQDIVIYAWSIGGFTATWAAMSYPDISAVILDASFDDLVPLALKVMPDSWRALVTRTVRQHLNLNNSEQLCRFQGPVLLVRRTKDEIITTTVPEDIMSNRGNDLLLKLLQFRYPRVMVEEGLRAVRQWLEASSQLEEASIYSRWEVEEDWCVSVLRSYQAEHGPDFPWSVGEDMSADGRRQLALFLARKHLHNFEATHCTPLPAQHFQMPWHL

[13] = target: T8, ABHD16A; assay: PS substrate assay, human ABHD16A-transfected HEK293T membrane proteome; format: biochemical; parameters: transiently transfected with 12 μg of the full-length cDNA of human ABHD16A (Open Biosystems Catalog # MHS6278-202758315); host or cells: HEK293T, transient, pCMV-SPORT6; details: 20 μM, 30 min
Protocol: HEK293T cells were grown to 40% confluence in a 15 cm dish in 25 mL of Dulbecco's modified Eagle medium (DMEM) supplemented with L-glutamine and 10% (vol/vol) FCS at 37° C. and 5% CO2 (vol/vol). The cells were transiently transfected with 12 μg of the full-length cDNA of human ABHD16A (Open Biosystems Catalog # MHS6278-202758315) or murine ABHD16A (Open Biosystems Catalog # MMM1013-202760516) in pCMV-SPORT6 vector using 40 μg polyethyleneimine “MAX” (MW 40,000) (PEI) (Polysciences Inc. Catalog #24765) as the transfection reagent as per manufacturer's instructions. As a “mock” control, an empty vector was transiently transfected. […] Protein concentration was measured using the Bio-Rad DC Protein Assay Kit as per manufacturer's protocol, and ABHD16A expression was confirmed using gel-based ABPP.
All the lipid species used in the lipid substrate hydrolysis assays were purchased from Avanti Polar Lipids Inc unless mentioned otherwise. […] All the data was collected and analyzed using the Agilent MassHunter Workstation software version B.04 using the Data Acquisition and Quantitative Analysis programs respectively. Measuring the area under the peak, and normalizing it to the internal standard quantified the product release for the lipid substrate hydrolysis assays. […] Some products from the substrate hydrolysis assays were detected in positive ion mode for qualitative identification. […]

SMILES: CCCCCCCCCCCCCC1OC(=O)/C1=C\CCCCc1ccccc1 (stereo not drawn) [Compound 4, (Z)-3-(5-phenylpentylidene)-4-tridecyloxetan-2-one]
melting point: 34 to 35 °C

SMILES: CCCCCCCCCCCCC[C@@H]1OC(=O)[C@H]1Cc1ccccc1 (relative stereo) [Compound 8b, (trans)-3-benzyl-4-tridecyloxetan-2-one]
reactivity / inhibition of serine hydrolase activities [1]: broadest reactivity | inhibition at 25 µM [2]: > 90% | inhibition at 25 µM [3]: > 90% | inhibition at 25 µM [4]: > 90% | inhibition at 25 µM [5]: > 90% | inhibition at 25 µM [6]: > 90% | inhibition at 25 µM [7]: 70 to 90% | inhibition at 25 µM [8]: 70 to 90% | inhibition at 25 µM [9]: > 90%

SMILES: NC(=O)CCCC/C=C1\C(=O)OC1CCCCCCCCCc1ccccc1 (stereo not drawn) [Compound 15, (Z)-6-(2-Oxo-4-(9-phenylnonyl)oxetan-3-ylidene)hexanamide]
melting point: 93 to 94 °C

SMILES: CCCCCCCCCCCCCC1OC(=O)/C1=C\c1ccccc1 (stereo not drawn) [Compound 3, (Z)-3-benzylidene-4-tridecyloxetan-2-one]
melting point: 61 to 62 °C

SMILES: CCCCCCCCCCC[C@@H](C[C@@H]1OC(=O)[C@H]1CCCCCC)OC(=O)[C@H](CC(C)C)NC=O [THL, tetrahydrolipstatin, reference compound]
heightened PS lipase activity of ABHD16A-transfected proteome [12]: blocked | heightened PS lipase activity of ABHD16A-transfected proteome [13]: blocked

The next lines start with results.

melting point: 79 to 80 °C
SMILES: CCCCCCCCCCCCCC1OC(=O)/C1=C\CCCCCS(N)(=O)=O (stereo not drawn) [Compound 16, (Z)-6-(2-Oxo-4-tridecyloxetan-3-ylidene)hexane-1-sulfonamide]

inhibition at 1 µM [11]: < 30%
SMILES: NC(=O)CCCCC=C1C(=O)OC1CCc1ccccc1 (mixture of isomers) [KC02, (E/Z)-6-(2-Oxo-4-(2-phenethyl)oxetan-3-ylidene)hexanamide]
cellular or secreted lyso-PS, other lipids, secreted IL-6 and TNF-α [10]: No changes

melting point: 98 to 101 °C
SMILES: CCCCCCCCCCCCCC1OC(=O)C1CCCCCC(N)=O (mixture of isomers) [Compound 17, (cis/trans)-6-(2-Oxo-4-tridecyloxetan-3-yl)hexanamide]
